# Marks after values point to notes of the source that are not given here.
# Assays:
# [1] = DPPH free radical scavenging assay; conditions: for scavenging activity towards the DPPH radicals (in words): compared with ascorbic acid
# Experimental: • DPPH free radical scavenging assay was determined (4). Ascorbic acid was used as reference standard antioxidant.
# [2] = system: lipid peroxidation; experiment: Lipid peroxidation assay
# Experimental: • Lipid peroxidation assay (5 and 6) was calculated as IC50 and recorded in Table 3.
# [3] = molecular target: T1, ovine COX-1 (Ovis aries, UniProt P05979); experiment: In vitro COX-1 inhibition, colorimetric ovine COX-1/COX-2 inhibitor screening assay kit; format: biochemical; conditions: for IC50: means of three determinations, read at 590 nm, read-out: IC 50 (µM) COX-1; for inhibitory activity against COX-1 (in words): compared with the standard drug celecoxib
# T1 construct: purchased
# T1 sequence (P05979 25-600): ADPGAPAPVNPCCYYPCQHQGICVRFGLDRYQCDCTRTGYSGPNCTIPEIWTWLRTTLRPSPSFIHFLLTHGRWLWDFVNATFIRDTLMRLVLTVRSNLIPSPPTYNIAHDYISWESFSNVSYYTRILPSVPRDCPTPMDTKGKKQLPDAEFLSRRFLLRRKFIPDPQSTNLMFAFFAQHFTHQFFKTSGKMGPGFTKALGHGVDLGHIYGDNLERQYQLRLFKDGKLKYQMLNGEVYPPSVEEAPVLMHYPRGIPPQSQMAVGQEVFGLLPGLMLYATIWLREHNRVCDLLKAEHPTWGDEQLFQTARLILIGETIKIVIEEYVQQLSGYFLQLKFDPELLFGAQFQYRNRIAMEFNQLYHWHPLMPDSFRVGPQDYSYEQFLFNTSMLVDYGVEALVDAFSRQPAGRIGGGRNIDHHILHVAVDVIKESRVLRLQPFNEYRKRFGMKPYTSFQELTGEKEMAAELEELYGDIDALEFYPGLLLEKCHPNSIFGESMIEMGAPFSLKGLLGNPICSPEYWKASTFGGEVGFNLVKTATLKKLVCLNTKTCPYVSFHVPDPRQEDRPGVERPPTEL
# [4] = molecular target: T2, ovine COX-2 (Ovis aries, UniProt P79208); experiment: In vitro COX-2 inhibition, colorimetric ovine COX-1/COX-2 inhibitor screening assay kit; format: biochemical; conditions: for COX-1/COX-2 selectivity index: IC50 (COX-1)/IC50 (COX-2); for IC50: means of three determinations, read at 590 nm, read-out: IC 50 (µM) COX-2; for inhibitory activity against COX-2 (in words): compared with the standard drug celecoxib
# T2 construct: purchased
# T2 sequence (P79208 17-603): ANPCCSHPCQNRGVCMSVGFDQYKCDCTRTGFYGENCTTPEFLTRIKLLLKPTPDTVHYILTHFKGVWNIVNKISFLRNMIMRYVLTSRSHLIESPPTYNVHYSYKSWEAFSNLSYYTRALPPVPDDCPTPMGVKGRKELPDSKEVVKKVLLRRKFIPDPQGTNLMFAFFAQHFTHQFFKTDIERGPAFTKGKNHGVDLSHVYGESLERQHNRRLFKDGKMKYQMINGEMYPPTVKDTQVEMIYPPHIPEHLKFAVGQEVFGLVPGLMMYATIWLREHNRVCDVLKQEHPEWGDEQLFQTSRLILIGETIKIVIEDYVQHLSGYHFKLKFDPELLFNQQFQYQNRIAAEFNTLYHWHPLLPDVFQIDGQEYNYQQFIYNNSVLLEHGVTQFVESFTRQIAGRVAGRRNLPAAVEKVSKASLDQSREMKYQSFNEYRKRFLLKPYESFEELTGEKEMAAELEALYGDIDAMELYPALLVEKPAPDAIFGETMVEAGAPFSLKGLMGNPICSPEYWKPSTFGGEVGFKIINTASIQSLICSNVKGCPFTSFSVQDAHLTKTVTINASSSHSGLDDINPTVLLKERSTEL
# [5] = system: carrageenan induced rat paw edema; experiment: Carrageenan induced rat paw edema; format: in vivo; conditions: mean ± SD
# Experimental: Carrageenan induced rat paw edema in rats: Fifty rats were divided into ten groups (i.e., each group, five rats). The first group (control), received carboxymethyl cellulose. The second group was given diclofenac sodium as a standard anti-inflammatory drug. Groups (3–10) were orally given the newly synthesized compounds (3–6) in two dosages (5 and 10 mg/kg). Results were expressed as rat paw edema percent. One hour later after administration of tested doses, carrageenan was injected sub planter in the left hind footpad of each rat as 0.05 ml of 1% solution in sterile distilled water. Plethysmometer was used to measure paw edema volume from 0 to 4 h after carrageenan injection. Paw edema volume was compared with vehicle control group and reduction percent was calculated as the following %reduction in edema=1-Vt Vc×100 Where Vt and Vc are the edema volume in the group treated with drug and control, respectively. Results were expressed as mean ± standard deviation (SD). Differences between means were tested for significance using a one-way analysis of variance (ANOVA) followed by Duncan’s test (Table 2).
# [6] = 5 mg/kg.b.wt oral, 0 h after carrageenan
# [7] = 5 mg/kg.b.wt oral, 1 h after carrageenan
# [8] = 5 mg/kg.b.wt oral, 2 h after carrageenan
# [9] = 5 mg/kg.b.wt oral, 3 h after carrageenan
# [10] = 5 mg/kg.b.wt oral, 4 h after carrageenan
# [11] = 10 mg/kg.b.wt oral, 0 h after carrageenan
# [12] = 10 mg/kg.b.wt oral, 1 h after carrageenan
# [13] = 10 mg/kg.b.wt oral, 2 h after carrageenan
# [14] = 10 mg/kg.b.wt oral, 3 h after carrageenan
# [15] = 10 mg/kg.b.wt oral, 4 h after carrageenan
SMILES,IC50 (μg/ml) for DPPH Scavenging [1],IC50 (μg/ml) for anti-lipid peroxidation [2],melting point,IC50 [3],COX-1/COX-2 selectivity index [4],IC50 [4],"Inhibition percent of rat paw edema [5, 6]","Inhibition percent of rat paw edema [5, 7]","Inhibition percent of rat paw edema [5, 8]","Inhibition percent of rat paw edema [5, 9]","Inhibition percent of rat paw edema [5, 10]","Inhibition percent of rat paw edema [5, 11]","Inhibition percent of rat paw edema [5, 12]","Inhibition percent of rat paw edema [5, 13]","Inhibition percent of rat paw edema [5, 14]","Inhibition percent of rat paw edema [5, 15]",other results
"O=C1O[C@H]([C@@H](O)CO)C(O)=C1O [Ascorbic acid, reference compound]",13.71 ± 0.75 µg/mL,25.72 ± 1.23 µg/mL,,,,,,,,,,,,,,,
"Cc1cc(=O)oc2c1c(C)nn2-c1nc(-c2cccnc2)cc(-c2cccs2)n1 [Compound 8, 3,4-dimethyl-1-(4-(pyridin-3-yl)-6-(thiophen-2-yl)pyrimidin-2-yl)pyrano[2,3-c]pyrazol-6(1H)-one]",,,190 to 192 °C,,,,,,,,,,,,,,
"CC1=NN(c2nc(-c3cccnc3)cc(-c3cccs3)n2)C(=O)C1 [Compound 9, 3-methyl-1-(4-(pyridin-3-yl)-6-(thiophen-2-yl)pyrimidin-2-yl)-1H-pyrazol-5(4H)-one]",,,225 to 227 °C,,,,,,,,,,,,,,
"S=c1nc(-c2cccnc2)cc(-c2cccs2)[nH]1 [Compound 4, 4-(pyridin-3-yl)-6-(thiophen-2-yl) pyrimidine-2(1H)-thione]",12.64 ± 0.41 µg/mL,22.53 ± 3.25 µg/mL,220 to 225 °C,4.02 µM,9.13,0.44 µM,0.46 ± 0.03^b %,18.91 ± 1.19^bc %,20.07 ± 1.43^e %,21.96 ± 1.25^d %,27.38 ± 1.68^c %,0.49 ± 0.01^ab %,21.43 ± 0.96^b %,26.27 ± 49^e %,33.13 ± 2.64^b %,37.15 ± 0.69^b %,scavenging activity towards the DPPH radicals (in words) [1]: higher scavenging activity towards the DPPH radicals than that of ascorbic acid
"O=C(O)Cc1ccccc1Nc1c(Cl)cccc1Cl [Diclofenac sodium, diclofenac sodium, reference compound]",,,,,,,,,,,,,,,,,"Inhibition percent of rat paw edema ([5]; standard drug, dose not given, 0 h after carrageenan): 0.49 ± 0.032^a %; Inhibition percent of rat paw edema ([5]; standard drug, dose not given, 1 h after carrageenan): 30.22 ± 1.27^a %; Inhibition percent of rat paw edema ([5]; standard drug, dose not given, 2 h after carrageenan): 33.85 ± 1.19^a %; Inhibition percent of rat paw edema ([5]; standard drug, dose not given, 3 h after carrageenan): 36.21 ± 0.93^a %; Inhibition percent of rat paw edema ([5]; standard drug, dose not given, 4 h after carrageenan): 41.10 ± 3.98^a %"
"N#Cc1c(-c2cccs2)cc(-c2cccnc2)oc1=O [Compound 6, 2-oxo-6-(pyridin-3-yl)-4-(thiophen-2-yl)-2H-pyran-3-carbonitrile]",15.26 ± 0.44 µg/mL,22.67 ± 3.51 µg/mL,210 to 212 °C,4.95 µM,5.89,0.84 µM,0.50 ± 0.02^a %,9.61 ± 1.12^e %,12.28 ± 1.38^h %,17.19 ± 1.26^e %,18.51 ± 2.26^e %,0.49 ± 0.01^a %,13.75 ± 1.15^de %,17.52 ± 1.13^f %,20.43 ± 0.65^d %,22.39 ± 1.16^d %,inhibitory activity against COX-1 (in words) [3]: nearly like that of the standard drug; inhibitory activity against COX-2 (in words) [4]: nearly like that of the standard drug
"NNc1nc(-c2cccnc2)cc(-c2cccs2)n1 [Compound 5, 1-(4-(pyridin-3-yl)-6-(thiophen-2-yl)pyrimidin-2-yl)hydrazine]",14.61 ± 0.72 µg/mL,23.62 ± 2.31 µg/mL,180 to 182 °C,4.6 µM,5.29,0.87 µM,0.49 ± 0.01^a %,11.62 ± 1.24^de %,14.61 ± 1.81^g %,18.41 ± 1^e %,19.48 ± 0.89^e %,0.48 ± 0.01^ab %,15.41 ± 0.83^cd %,18.83 ± 0.75^ef %,24.19 ± 1.59^c %,28.59 ± 2.26^c %,inhibitory activity against COX-1 (in words) [3]: nearly like that of the standard drug; inhibitory activity against COX-2 (in words) [4]: nearly like that of the standard drug
"O=C(/C=C/c1cccs1)c1cccnc1 [Compound 3, (E)-1-(pyridin-3-yl)-3-(thiophen-2-yl) prop-2-en-1-one]",10.72 ± 0.54 µg/mL,16.81 ± 2.71 µg/mL,256 to 258 °C,3.7 µM,9.49,0.39 µM,0.48 ± 0.027^ab %,21.72 ± 0.79^b %,22.79 ± 1.07^d %,24.79 ± 0.49^c %,28.41 ± 1.30^c %,0.47 ± 0.04^ab %,31.98 ± 9.35^a %,29.93 ± 1.43^b %,34.16 ± 0.61^b %,41.15 ± 0.750^a %,scavenging activity towards the DPPH radicals (in words) [1]: higher scavenging activity towards the DPPH radicals than that of ascorbic acid

# Reference: publication PMC5992111, “Heterocyclization of polarized system: synthesis, antioxidant and anti-inflammatory 4-(pyridin-3-yl)-6-(thiophen-2-yl) pyrimidine-2-thiol derivatives” (Chemistry Central Journal, 2018)
